# From article PMC7385619, “A triple action CDK4/6-PI3K-BET inhibitor with augmented cancer cell cytotoxicity” (Cell Discovery, 2020)
# Key:
# Assay in all cases: KINOMEscan assay (Eurofins DiscoverX)
# Format in all cases: binding
# kinome (kinase panel) [1] = biological target: T1, kinome (kinase panel) (Homo sapiens, UniProt O00141); settings: SGK (SGK1); 1000 nM; read-out: Percent Control
# T1 construct: purchased Eurofins DiscoverX
# kinome (kinase panel) [2] = biological target: T2, kinome (kinase panel) (Homo sapiens, UniProt Q07912); settings: TNK2; 1000 nM; read-out: Percent Control
# T2 construct: purchased Eurofins DiscoverX
# T2 sequence (Q07912 whole entry): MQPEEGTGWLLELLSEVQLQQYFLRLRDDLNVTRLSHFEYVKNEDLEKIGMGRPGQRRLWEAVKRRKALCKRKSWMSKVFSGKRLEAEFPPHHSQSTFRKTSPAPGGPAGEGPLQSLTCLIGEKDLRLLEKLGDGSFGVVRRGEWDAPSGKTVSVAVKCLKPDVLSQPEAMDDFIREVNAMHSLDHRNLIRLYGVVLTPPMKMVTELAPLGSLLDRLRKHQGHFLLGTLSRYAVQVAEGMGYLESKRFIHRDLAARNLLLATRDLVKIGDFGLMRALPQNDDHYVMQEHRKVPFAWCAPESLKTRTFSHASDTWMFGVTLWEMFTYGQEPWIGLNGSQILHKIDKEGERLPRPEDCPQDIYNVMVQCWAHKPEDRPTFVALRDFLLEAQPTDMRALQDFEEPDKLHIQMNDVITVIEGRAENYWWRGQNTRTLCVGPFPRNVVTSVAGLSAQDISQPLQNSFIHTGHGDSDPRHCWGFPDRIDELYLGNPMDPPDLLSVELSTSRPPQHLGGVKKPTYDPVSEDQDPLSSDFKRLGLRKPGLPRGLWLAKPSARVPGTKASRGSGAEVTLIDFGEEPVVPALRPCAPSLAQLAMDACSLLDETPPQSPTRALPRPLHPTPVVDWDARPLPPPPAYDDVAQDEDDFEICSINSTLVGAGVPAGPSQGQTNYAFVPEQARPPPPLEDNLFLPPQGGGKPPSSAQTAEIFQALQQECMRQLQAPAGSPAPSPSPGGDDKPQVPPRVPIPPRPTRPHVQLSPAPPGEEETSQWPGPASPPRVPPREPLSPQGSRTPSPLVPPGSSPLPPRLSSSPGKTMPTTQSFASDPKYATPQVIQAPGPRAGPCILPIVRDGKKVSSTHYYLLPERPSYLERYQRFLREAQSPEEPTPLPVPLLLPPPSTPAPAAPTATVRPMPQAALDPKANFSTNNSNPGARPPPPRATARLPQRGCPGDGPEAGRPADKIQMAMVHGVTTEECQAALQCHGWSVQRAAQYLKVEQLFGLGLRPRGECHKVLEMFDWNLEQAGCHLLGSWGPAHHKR
# kinome (kinase panel) [3] = biological target: T3, kinome (kinase panel) (Plasmodium falciparum, UniProt P62344); settings: PFCDPK1(P.falciparum) (Entrez CDPK1); 1000 nM; read-out: Percent Control
# T3 construct: purchased Eurofins DiscoverX
# kinome (kinase panel) [4] = biological target: T4, kinome (kinase panel) (Homo sapiens, UniProt P22694); settings: PKAC-beta (Entrez PRKACB); 1000 nM; read-out: Percent Control
# T4 construct: purchased Eurofins DiscoverX
# kinome (kinase panel) [5] = biological target: T5, kinome (kinase panel) (Homo sapiens, UniProt P00533, L858R); settings: […]; 1000 nM; read-out: Percent Control
# T5 construct: purchased Eurofins DiscoverX
# kinome (kinase panel) [6] = biological target: T6, kinome (kinase panel) (Homo sapiens, UniProt Q13557); settings: CAMK2D; 1000 nM; read-out: Percent Control
# T6 construct: purchased Eurofins DiscoverX
# kinome (kinase panel) [7] = biological target: T7, kinome (kinase panel) (Homo sapiens, UniProt P37023); settings: ACVRL1; 1000 nM; read-out: Percent Control
# T7 construct: purchased Eurofins DiscoverX
# kinome (kinase panel) [8] = biological target: T8, kinome (kinase panel) (Homo sapiens, UniProt P04626); settings: ERBB2; 1000 nM; read-out: Percent Control
# T8 construct: purchased Eurofins DiscoverX
# kinome (kinase panel) [9] = biological target: T9, kinome (kinase panel) (Homo sapiens, UniProt Q9UF33); settings: EPHA6; 1000 nM; read-out: Percent Control
# T9 construct: purchased Eurofins DiscoverX
# kinome (kinase panel) [10] = biological target: T10, kinome (kinase panel) (Homo sapiens, UniProt P12931); settings: SRC; 1000 nM; read-out: Percent Control
# T10 construct: purchased Eurofins DiscoverX
# kinome (kinase panel) [11] = biological target: T11, kinome (kinase panel) (Homo sapiens, UniProt Q13523); settings: PRP4 (Entrez PRPF4B); 1000 nM; read-out: Percent Control
# T11 construct: purchased Eurofins DiscoverX
# T11 sequence (Q13523 whole entry): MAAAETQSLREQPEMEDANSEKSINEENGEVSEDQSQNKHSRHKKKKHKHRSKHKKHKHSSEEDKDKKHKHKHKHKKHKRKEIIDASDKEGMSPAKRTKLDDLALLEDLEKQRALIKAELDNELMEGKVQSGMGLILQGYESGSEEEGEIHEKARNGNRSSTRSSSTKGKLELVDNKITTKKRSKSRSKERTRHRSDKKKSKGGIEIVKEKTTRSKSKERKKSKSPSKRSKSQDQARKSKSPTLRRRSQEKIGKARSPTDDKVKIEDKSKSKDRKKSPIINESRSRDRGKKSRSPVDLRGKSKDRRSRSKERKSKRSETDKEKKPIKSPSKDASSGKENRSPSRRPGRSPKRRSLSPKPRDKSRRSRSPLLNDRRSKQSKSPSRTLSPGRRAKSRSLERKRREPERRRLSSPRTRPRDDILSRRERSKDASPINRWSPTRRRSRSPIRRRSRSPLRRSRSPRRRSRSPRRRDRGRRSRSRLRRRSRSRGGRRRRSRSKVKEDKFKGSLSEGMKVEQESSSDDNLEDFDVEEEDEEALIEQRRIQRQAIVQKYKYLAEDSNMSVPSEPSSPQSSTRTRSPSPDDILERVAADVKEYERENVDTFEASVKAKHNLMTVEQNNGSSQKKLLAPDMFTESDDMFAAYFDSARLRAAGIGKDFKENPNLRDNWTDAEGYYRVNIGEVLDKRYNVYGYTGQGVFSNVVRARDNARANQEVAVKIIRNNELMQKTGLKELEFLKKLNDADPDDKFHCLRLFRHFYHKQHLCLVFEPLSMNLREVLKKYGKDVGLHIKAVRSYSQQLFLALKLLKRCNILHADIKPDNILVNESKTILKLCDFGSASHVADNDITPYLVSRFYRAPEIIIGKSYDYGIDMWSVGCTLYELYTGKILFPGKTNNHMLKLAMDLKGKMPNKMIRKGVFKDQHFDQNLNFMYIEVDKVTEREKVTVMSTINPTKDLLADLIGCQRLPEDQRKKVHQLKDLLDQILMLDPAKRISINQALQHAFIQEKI
# kinome (kinase panel) [12] = biological target: T12, kinome (kinase panel) (Homo sapiens, UniProt P36888, D835V); settings: […]; 1000 nM; read-out: Percent Control
# T12 construct: purchased Eurofins DiscoverX
# kinome (kinase panel) [13] = biological target: T13, kinome (kinase panel) (Homo sapiens, UniProt Q9UQM7); settings: CAMK2A; 1000 nM; read-out: Percent Control
# T13 construct: purchased Eurofins DiscoverX
# T13 sequence (Q9UQM7 whole entry): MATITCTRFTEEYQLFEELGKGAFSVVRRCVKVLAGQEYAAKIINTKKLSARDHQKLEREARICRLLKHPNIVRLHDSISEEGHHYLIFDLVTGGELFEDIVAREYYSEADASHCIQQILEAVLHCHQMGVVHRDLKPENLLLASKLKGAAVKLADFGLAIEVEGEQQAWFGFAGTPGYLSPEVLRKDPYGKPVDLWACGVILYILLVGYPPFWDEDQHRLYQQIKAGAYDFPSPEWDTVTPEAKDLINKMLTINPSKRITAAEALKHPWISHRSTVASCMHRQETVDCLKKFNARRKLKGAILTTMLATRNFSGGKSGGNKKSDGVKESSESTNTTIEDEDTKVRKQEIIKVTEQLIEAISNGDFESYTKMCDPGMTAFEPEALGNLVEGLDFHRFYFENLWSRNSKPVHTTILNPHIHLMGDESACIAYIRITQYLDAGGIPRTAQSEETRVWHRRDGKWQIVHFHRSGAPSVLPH
# kinome (kinase panel) [14] = biological target: T14, kinome (kinase panel) (Homo sapiens, UniProt Q8IVH8); settings: MAP4K3; 1000 nM; read-out: Percent Control
# T14 construct: purchased Eurofins DiscoverX
# kinome (kinase panel) [15] = biological target: T15, kinome (kinase panel) (Homo sapiens, UniProt Q9HAZ1); settings: CLK4; 1000 nM; read-out: Percent Control
# T15 construct: purchased Eurofins DiscoverX
# T15 sequence (Q9HAZ1 whole entry): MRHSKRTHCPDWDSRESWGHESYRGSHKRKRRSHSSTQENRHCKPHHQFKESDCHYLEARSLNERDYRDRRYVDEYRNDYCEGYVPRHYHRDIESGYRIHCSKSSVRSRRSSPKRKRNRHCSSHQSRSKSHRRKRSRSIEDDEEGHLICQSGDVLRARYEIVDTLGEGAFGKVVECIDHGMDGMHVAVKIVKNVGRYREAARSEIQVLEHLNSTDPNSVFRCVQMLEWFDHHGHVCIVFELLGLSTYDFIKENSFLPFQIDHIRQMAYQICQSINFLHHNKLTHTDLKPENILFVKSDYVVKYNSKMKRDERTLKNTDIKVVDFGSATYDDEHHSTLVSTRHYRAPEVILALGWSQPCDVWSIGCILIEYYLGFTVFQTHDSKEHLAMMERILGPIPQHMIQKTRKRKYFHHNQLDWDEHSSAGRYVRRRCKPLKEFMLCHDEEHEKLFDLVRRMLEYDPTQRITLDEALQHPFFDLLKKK
# kinome (kinase panel) [16] = biological target: T16, kinome (kinase panel) (Homo sapiens, UniProt Q9Y6R4); settings: MAP3K4; 1000 nM; read-out: Percent Control
# T16 construct: purchased Eurofins DiscoverX
# kinome (kinase panel) [17] = biological target: T17, kinome (kinase panel) (Homo sapiens, UniProt Q96L34); settings: MARK4; 1000 nM; read-out: Percent Control
# T17 construct: purchased Eurofins DiscoverX
# kinome (kinase panel) [18] = biological target: T18, kinome (kinase panel) (Homo sapiens, UniProt Q13555); settings: CAMK2G; 1000 nM; read-out: Percent Control
# T18 construct: purchased Eurofins DiscoverX
# T18 sequence (Q13555 whole entry): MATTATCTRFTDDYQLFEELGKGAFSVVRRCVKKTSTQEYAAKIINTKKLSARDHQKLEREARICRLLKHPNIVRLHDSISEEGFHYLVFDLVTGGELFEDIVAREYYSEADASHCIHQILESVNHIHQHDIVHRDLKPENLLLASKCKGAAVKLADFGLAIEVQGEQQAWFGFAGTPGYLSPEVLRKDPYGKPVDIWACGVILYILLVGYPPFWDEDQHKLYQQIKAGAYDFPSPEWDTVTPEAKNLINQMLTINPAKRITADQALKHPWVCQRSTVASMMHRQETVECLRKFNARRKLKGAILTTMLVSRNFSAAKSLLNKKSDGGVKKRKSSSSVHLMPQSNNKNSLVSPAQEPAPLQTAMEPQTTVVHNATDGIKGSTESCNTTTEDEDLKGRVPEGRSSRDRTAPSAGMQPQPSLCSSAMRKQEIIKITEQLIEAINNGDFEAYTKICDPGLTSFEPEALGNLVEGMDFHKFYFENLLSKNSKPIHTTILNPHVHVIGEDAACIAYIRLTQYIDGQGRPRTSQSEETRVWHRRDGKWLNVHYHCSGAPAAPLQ
# kinome (kinase panel) [19] = biological target: T19, kinome (kinase panel) (Homo sapiens, UniProt P31749); settings: AKT1; 1000 nM; read-out: Percent Control
# T19 construct: purchased Eurofins DiscoverX
# kinome (kinase panel) [20] = biological target: T20, kinome (kinase panel) (Homo sapiens, UniProt P42345); settings: MTOR; 1000 nM; read-out: Percent Control
# T20 construct: purchased Eurofins DiscoverX
# kinome (kinase panel) [21] = biological target: T21, kinome (kinase panel) (Homo sapiens, UniProt O14733); settings: MKK7 (Entrez MAP2K7); 1000 nM; read-out: Percent Control
# T21 construct: purchased Eurofins DiscoverX
# kinome (kinase panel) [22] = biological target: T22, kinome (kinase panel) (Homo sapiens, UniProt P00519, Q252H)
# T22 construct: purchased Eurofins DiscoverX
# kinome (kinase panel) [23] = biological target: T23, kinome (kinase panel) (Homo sapiens, UniProt P49336); settings: CDK8; 1000 nM; read-out: Percent Control
# T23 construct: purchased Eurofins DiscoverX
# kinome (kinase panel) [24] = biological target: T24, kinome (kinase panel) (Homo sapiens, UniProt P78368); settings: CSNK1G2; 1000 nM; read-out: Percent Control
# T24 construct: purchased Eurofins DiscoverX
# T24 sequence (P78368 whole entry): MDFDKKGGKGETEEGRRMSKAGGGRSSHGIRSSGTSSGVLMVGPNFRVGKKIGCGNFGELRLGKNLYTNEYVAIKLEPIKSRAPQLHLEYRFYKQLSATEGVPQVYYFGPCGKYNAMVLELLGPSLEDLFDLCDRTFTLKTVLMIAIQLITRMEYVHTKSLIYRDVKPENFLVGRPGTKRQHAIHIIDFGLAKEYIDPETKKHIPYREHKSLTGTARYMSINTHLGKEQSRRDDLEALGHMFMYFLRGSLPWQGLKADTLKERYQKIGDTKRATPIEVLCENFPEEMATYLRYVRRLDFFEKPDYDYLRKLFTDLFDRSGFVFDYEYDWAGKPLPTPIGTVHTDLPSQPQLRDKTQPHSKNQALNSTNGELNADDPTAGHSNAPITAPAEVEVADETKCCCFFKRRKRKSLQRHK
# kinome (kinase panel) [25] = biological target: T25, kinome (kinase panel) (Homo sapiens, UniProt Q99755); settings: PIP5K1A; 1000 nM; read-out: Percent Control
# T25 construct: purchased Eurofins DiscoverX
# kinome (kinase panel) [26] = biological target: T26, kinome (kinase panel) (Homo sapiens, UniProt P29322); settings: EPHA8; 1000 nM; read-out: Percent Control
# T26 construct: purchased Eurofins DiscoverX
# T26 sequence (P29322 28-1005): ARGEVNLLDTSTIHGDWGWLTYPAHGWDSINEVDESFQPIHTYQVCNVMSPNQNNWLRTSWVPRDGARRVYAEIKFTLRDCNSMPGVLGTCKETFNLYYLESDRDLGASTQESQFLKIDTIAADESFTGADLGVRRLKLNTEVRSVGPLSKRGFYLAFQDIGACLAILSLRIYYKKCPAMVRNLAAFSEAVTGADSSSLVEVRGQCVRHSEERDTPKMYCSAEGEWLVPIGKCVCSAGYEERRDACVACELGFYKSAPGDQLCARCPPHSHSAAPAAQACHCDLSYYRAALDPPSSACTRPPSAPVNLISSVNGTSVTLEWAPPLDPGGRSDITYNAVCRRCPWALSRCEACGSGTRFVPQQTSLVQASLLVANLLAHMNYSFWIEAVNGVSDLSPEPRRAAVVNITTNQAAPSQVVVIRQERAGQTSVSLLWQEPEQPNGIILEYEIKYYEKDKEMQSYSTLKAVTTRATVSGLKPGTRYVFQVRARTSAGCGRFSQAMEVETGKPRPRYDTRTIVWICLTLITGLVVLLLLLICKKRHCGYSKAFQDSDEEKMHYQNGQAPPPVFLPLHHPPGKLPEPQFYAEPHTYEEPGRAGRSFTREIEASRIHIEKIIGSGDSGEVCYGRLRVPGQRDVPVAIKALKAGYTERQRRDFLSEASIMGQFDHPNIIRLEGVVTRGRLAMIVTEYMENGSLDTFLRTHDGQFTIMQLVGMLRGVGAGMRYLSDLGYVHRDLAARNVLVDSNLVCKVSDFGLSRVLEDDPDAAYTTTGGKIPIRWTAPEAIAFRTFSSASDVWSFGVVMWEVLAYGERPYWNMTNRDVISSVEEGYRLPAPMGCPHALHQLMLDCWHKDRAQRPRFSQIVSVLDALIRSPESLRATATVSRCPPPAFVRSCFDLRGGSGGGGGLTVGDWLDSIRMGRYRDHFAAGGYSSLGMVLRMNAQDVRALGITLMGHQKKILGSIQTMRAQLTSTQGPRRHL
# kinome (kinase panel) [27] = biological target: T27, kinome (kinase panel) (Homo sapiens, UniProt Q00526); settings: CDK3; 1000 nM; read-out: Percent Control
# T27 construct: purchased Eurofins DiscoverX
# kinome (kinase panel) [28] = biological target: T28, kinome (kinase panel) (Homo sapiens, UniProt Q12866); settings: MERTK; 1000 nM; read-out: Percent Control
# T28 construct: purchased Eurofins DiscoverX
# kinome (kinase panel) [29] = biological target: T29, kinome (kinase panel) (Homo sapiens, UniProt P08069); settings: IGF1R; 1000 nM; read-out: Percent Control
# T29 construct: purchased Eurofins DiscoverX
# kinome (kinase panel) [30] = biological target: T30, kinome (kinase panel) (Homo sapiens, UniProt P07949, V804L); settings: read-out: Percent Control
# T30 construct: purchased Eurofins DiscoverX
# kinome (kinase panel) [31] = biological target: T31, kinome (kinase panel) (Homo sapiens, UniProt Q9Y4K4); settings: MAP4K5; 1000 nM; read-out: Percent Control
# T31 construct: purchased Eurofins DiscoverX
# kinome (kinase panel) [32] = biological target: T32, kinome (kinase panel) (Homo sapiens, UniProt Q12852); settings: DLK (Entrez MAP3K12); 1000 nM; read-out: Percent Control
# T32 construct: purchased Eurofins DiscoverX
# kinome (kinase panel) [33] = biological target: T33, kinome (kinase panel) (Homo sapiens, UniProt P29320); settings: EPHA3; 1000 nM; read-out: Percent Control
# T33 construct: purchased Eurofins DiscoverX
structure (smiles),measurement,setting,value
CN(C)C(=O)c1cc2cnc(Nc3ccc(-c4csc5c(=O)cc(N6CCOCC6)oc45)cc3)nc2n1C1CCCC1 [SRX3177],remaining binding at 1 µM,kinome (kinase panel) [1],56%
same,remaining binding at 1 µM,kinome (kinase panel) [2],90%
same,remaining binding at 1 µM,kinome (kinase panel) [3],71%
same,remaining binding at 1 µM,kinome (kinase panel) [4],100%
same,remaining binding at 1 µM,kinome (kinase panel) [5],100%
same,remaining binding at 1 µM,kinome (kinase panel) [6],65%
same,remaining binding at 1 µM,kinome (kinase panel) [7],100%
same,remaining binding at 1 µM,kinome (kinase panel) [8],76%
same,remaining binding at 1 µM,kinome (kinase panel) [9],99%
same,remaining binding at 1 µM,kinome (kinase panel) [10],74%
same,remaining binding at 1 µM,kinome (kinase panel) [11],58%
same,remaining binding at 1 µM,kinome (kinase panel) [12],2.1%
same,remaining binding at 1 µM,kinome (kinase panel) [13],76%
same,remaining binding at 1 µM,kinome (kinase panel) [14],100%
same,remaining binding at 1 µM,kinome (kinase panel) [15],100%
same,remaining binding at 1 µM,kinome (kinase panel) [16],90%
same,remaining binding at 1 µM,kinome (kinase panel) [17],100%
same,remaining binding at 1 µM,kinome (kinase panel) [18],65%
same,remaining binding at 1 µM,kinome (kinase panel) [19],100%
same,remaining binding at 1 µM,kinome (kinase panel) [20],79%
same,remaining binding at 1 µM,kinome (kinase panel) [21],46%
same,Percent Control,kinome (kinase panel) [22],58
same,remaining binding at 1 µM,kinome (kinase panel) [22]; read-out: Percent Control,72%
same,remaining binding at 1 µM,kinome (kinase panel) [23],90%
same,remaining binding at 1 µM,kinome (kinase panel) [24],96%
same,remaining binding at 1 µM,kinome (kinase panel) [25],21%
same,remaining binding at 1 µM,kinome (kinase panel) [26],92%
same,remaining binding at 1 µM,kinome (kinase panel) [27],69%
same,remaining binding at 1 µM,kinome (kinase panel) [28],86%
same,remaining binding at 1 µM,kinome (kinase panel) [29],100%
same,remaining binding at 1 µM,kinome (kinase panel) [30],99%
same,remaining binding at 1 µM,kinome (kinase panel) [31],100%
same,remaining binding at 1 µM,kinome (kinase panel) [32],73%
same,remaining binding at 1 µM,kinome (kinase panel) [33],90%
